Among the data in US9522888B2, “Substituted bicyclic compounds” (BRISTOL-MYERS SQUIBB COMPANY, priority 2014, dated 2016) are EC50 and IC50 values, retold here.

The target in experiment [1] is S1P3 (membranes prepared from EDG3-Gal5-bla HEK293T cells) (Homo sapiens (Human), UniProt Q99500). The experiment is described as follows: Receptor [35S] GTPγS binding assay (S1P3 GTPγS). The experiment is classed as biochemical. The conditions noted are these: phosphate examples; read-out: S1P3 GTPγS. On the procedure:
(§1) Receptor [^35S] GTPγS Binding Assays: (S1P1 GTPγS/S1P3 GTPγS)
(§2) Compounds were loaded in a 384 Falcon v-bottom plate (0.5 μl/well in a 11 point, 3-fold dilution). Membranes prepared from S1P1/CHO cells or EDG3-Gal5-bla HEK293T cells (EDG3 equivalent S1P3) were added to the compound plate (40 μl/well, final protein 3 μg/well) with MULTIDROP®. [^35S] GTP (1250 Ci/mmol, Perkin Elmer) was diluted in assay buffer: 20 mM HEPES, pH7.5, 10 mM MgCl2, 150 mM NaCl, 1 mM EGTA (ethylene glycol tetraacetic acid), 1 mM DTT (Dithiothreitol), 10 μM GDP, 0.1% fatty acid free BSA, and 10 μg/ml Saponin to 0.4 nM. 40 μl of the [^35S] GTP solution was added to the compound plate with a final concentration of 0.2 nM. The reaction was kept at room temperature for 45 min. At the end of incubation, all the mixtures in the compound plate were transferred to Millipore 384-well FB filter plates via the VELOCITY11® Vprep liquid handler. The filter plate was washed with water 4 times by using the manifold Embla plate washer and dried at 60° C. for 45 min. MicroScint 20 scintillation fluid (30 μl) was added to each well for counting on the Packard TOPCOUNT®.
A smaller value for GTPγS S1P1 EC50 value indicated greater activity for the compound in the GTPγS S1P1 binding assay. A larger value for the GTPγS S1P3 EC50 value indicated less activity in the GTPγS S1P3 binding assay. […] Thus the compounds of the present invention may be used in treating, preventing, or curing various S1P1 receptor-related conditions while reducing or minimizing the side effects due to S1P3 activity. The selectivity of the compounds of the present invention indicate their potential use in treating, preventing, or curing autoimmune and inflammatory diseases such as multiple sclerosis, rheumatoid arthritis, inflammatory bowel disease, lupus, psoriasis, or vascular diseases, while reducing or minimizing possible side effects due to S1P3 activity. Other potential uses of the compounds of the present invention include minimizing or reducing rejection of transplanted organs, while reducing or minimizing side effects due to S1P3 activity.
A general note: Binding of GTPγS marks nucleotide exchange on a G protein.

Experiment [2] deals with hS1P1/CHO cells (Homo sapiens (Human), UniProt P21453). Briefly: hS1P1 ERK phosphorylation (S1P1 pERK). Format: cell-based. The conditions noted are these: phosphate examples. On the procedure:
hS1P1 ERK Phosphorylation (S1P1 pERK)
hS1P1/CHO cells were plated into BD Amine 384-well plates the day before the assay. On the day of the assay, growth medium was removed and replaced with serum-free medium (Ham's F-12 Invitrogen) and incubated for 2 hours. Test compounds pre-diluted in HBSS (Gibco)/20 mM HEPES (Gibco) were transferred to the cell plates and incubated for 7 minutes at 37° C. Cells were lysed in lysis buffer (Perkin Elmer) and phospho-ERK was measured using the SureFire pERK kit (Perkin Elmer) as described by the manufacturer. Data was plotted as percentage activation of the test compound relative to the efficacy of 10 μM S1P.

Experiment [3] concerns the target human S1P1 (Homo sapiens (Human), UniProt P21453). Briefly: S1P1 binding assay (33P-S1P radioligand competition, CHO cell membranes). The note with it: phosphate examples; read-out: S1P1 Binding. On the procedure: Membranes were prepared from CHO cells expressing human S1P1. Cells pellets (1×10^9 cells/pellet) were suspended in buffer containing 20 mM HEPES (4-(2-hydroxyethyl)-1-piperazineethanesulfonic acid), pH 7.5, 50 mM NaCl, 2 mM EDTA (Ethylenediaminetetraacetic acid) and Protease Inhibitor cocktail (Roche), and disrupted on ice using the Polytron homogenizer. The homogenate was centrifuged at 20,000 rpm (48,000 g) and the supernatant was discarded. The membrane pellets were resuspended in buffer containing 50 mM HEPES, pH 7.5, 100 mM NaCl, 1 mM MgCl2, 2 mM EDTA and stored in aliquots at −80° C. after protein concentration determination.

Experiment [4] addresses S1P1 (membranes prepared from S1P1/CHO cells) (Homo sapiens (Human), UniProt P21453). Briefly: Receptor [35S] GTPγS binding assay (S1P1 GTPγS). Format: biochemical. The note with it: phosphate examples; read-out: S1P1 GTPγS. As to the method:
as §1
as §2, with “TOPCOUNT®. […]” for “TOPCOUNT®.”

Sequence of S1P3 (membranes prepared from EDG3-Gal5-bla HEK293T cells) (Q99500 whole entry): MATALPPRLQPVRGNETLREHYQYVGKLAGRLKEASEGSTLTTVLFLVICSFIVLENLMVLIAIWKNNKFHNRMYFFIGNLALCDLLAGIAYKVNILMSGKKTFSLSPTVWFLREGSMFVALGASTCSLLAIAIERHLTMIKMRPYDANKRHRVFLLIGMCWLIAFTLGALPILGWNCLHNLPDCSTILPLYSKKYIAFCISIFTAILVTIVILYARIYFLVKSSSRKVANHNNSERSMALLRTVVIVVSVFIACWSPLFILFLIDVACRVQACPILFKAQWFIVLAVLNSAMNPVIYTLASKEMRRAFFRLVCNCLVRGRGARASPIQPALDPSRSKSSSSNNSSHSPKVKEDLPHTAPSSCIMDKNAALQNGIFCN
Sequence of S1P1 (membranes prepared from S1P1/CHO cells) (P21453 whole entry): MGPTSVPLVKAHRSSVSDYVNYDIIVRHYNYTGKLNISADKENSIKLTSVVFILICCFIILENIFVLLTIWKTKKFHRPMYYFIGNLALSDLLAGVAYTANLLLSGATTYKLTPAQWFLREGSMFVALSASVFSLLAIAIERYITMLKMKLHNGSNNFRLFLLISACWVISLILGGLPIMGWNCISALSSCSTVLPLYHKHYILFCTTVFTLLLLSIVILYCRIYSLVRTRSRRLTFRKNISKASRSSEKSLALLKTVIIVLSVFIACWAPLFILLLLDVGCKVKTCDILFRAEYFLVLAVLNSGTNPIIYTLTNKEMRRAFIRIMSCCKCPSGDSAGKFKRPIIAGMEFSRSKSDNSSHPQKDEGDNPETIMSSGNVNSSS
Sequence of human S1P1 (P21453 whole entry): as above
Sequence of hS1P1/CHO cells (P21453 whole entry): as above

`CC(C)c1ccc(OC[C@@H]2CCc3cc([C@H]4CC[C@](N)(COP(=O)(O)O)C4)ccc3C2)cc1` [compound 479]: the EC50 in experiment [1] is over 625 nM; in experiment [2], 10 to 100 nM; in experiment [4], 10 to 100 nM. For the same molecule, in experiment [3], the IC50 fell in the range of 100 to 1000 nM.

In the case of `CC(C)=CCCOC[C@@H]1CCc2cc([C@H]3CC[C@](N)(COP(=O)(O)O)C3)ccc2C1` [compound 461], the results for the EC50 in experiment [1], in experiment [2] and in experiment [4] were over 625 nM, under 10 nM and under 10 nM, respectively. Also, in experiment [3], the IC50 is under 10 nM.

Regarding `CCSCC[C@@H]1CCc2cc([C@H]3CC[C@](N)(COP(=O)(O)O)C3)ccc2C1` [compound 533], the EC50 in experiment [1] was over 625 nM; in experiment [2], under 10 nM; in experiment [4], under 10 nM. The IC50 in experiment [3] was under 10 nM.

With `CC(C)Oc1cccc(C[C@@H]2CCc3cc([C@H]4CC[C@](N)(COP(=O)(O)O)C4)ccc3C2)c1` [compound 560], the EC50 in experiment [1] was over 625 nM; in experiment [2] it was under 10 nM; in experiment [4] it was under 10 nM. Further, the IC50 in experiment [3] was 10 to 100 nM.

Regarding `CCOc1cccc(C[C@H]2CCc3cc([C@H]4CC[C@](N)(COP(=O)(O)O)C4)ccc3C2)c1` [compound 548], the EC50 in experiment [1] is over 625 nM; in experiment [2], under 10 nM; in experiment [4], 10 to 100 nM. The IC50 in experiment [3] was 10 to 100 nM.

With `N[C@]1(COP(=O)(O)O)CC[C@H](c2ccc3c(c2)CC[C@@H](COc2ccc(F)cc2)C3)C1` [compound 449], the EC50 is over 625 nM in experiment [1], 10 to 100 nM in experiment [2] and 10 to 100 nM in experiment [4]. Further, the IC50 in experiment [3] was under 10 nM.

On to `C/C(=N\OCc1ccccc1)[C@@H]1CCc2cc([C@H]3CC[C@](N)(COP(=O)(O)O)C3)ccc2C1` [compound 664], for which the EC50 in experiment [1] is over 625 nM; in experiment [2] it was under 10 nM; in experiment [4] it was under 10 nM. In addition, the IC50 in experiment [3] was under 10 nM.

In the case of `CC(C)(C)CSC[C@H]1CCc2cc([C@H]3CC[C@](N)(COP(=O)(O)O)C3)ccc2C1` [compound 514], the results for the EC50 in experiment [1], in experiment [2] and in experiment [4] were over 625 nM, 10 to 100 nM and 10 to 100 nM, respectively. In addition, the IC50 in experiment [3] was under 10 nM.

`COc1ccc(COC[C@@H]2CCc3cc([C@H]4CC[C@](N)(COP(=O)(O)O)C4)ccc3C2)cc1` [compound 482]: the EC50 in experiment [1] is over 625 nM; in experiment [2], 10 to 100 nM; in experiment [4], 10 to 100 nM. Moreover, the IC50 in experiment [3] lay in the range of 100 to 1000 nM.

As for `N[C@@]1(COP(=O)(O)O)CC[C@@H](c2ccc3c(c2)CC[C@H](OCCOc2ccccc2)C3)C1` (single isomer, unassigned) [compound 582], the EC50 in experiment [1] was over 625 nM; in experiment [2] it was under 10 nM; in experiment [4] it was 10 to 100 nM. Moreover, the IC50 in experiment [3] is under 10 nM.

Consider `CCCC/C=C/[C@@H]1CCc2cc([C@H]3CC[C@](N)(COP(=O)(O)O)C3)ccc2C1` [compound 637], for which the figures for the EC50 in experiment [1], in experiment [2] and in experiment [4] were over 625 nM, 10 to 100 nM and 10 to 100 nM, respectively. The IC50 in experiment [3] is under 10 nM.

`COCCC[C@H]1CCc2cc([C@@H]3CC[C@@](N)(COP(=O)(O)O)C3)ccc2C1` [compound 595]: the EC50 is over 625 nM in experiment [1], under 10 nM in experiment [2] and 10 to 100 nM in experiment [4]. In experiment [3], the IC50 is under 10 nM.

In the case of `COCc1cccc(OC[C@@H]2CCc3cc([C@H]4CC[C@](N)(COP(=O)(O)O)C4)ccc3C2)c1` [compound 480], the EC50 in experiment [1] is over 625 nM; in experiment [2], 100 to 1000 nM; in experiment [4] it was under 10 nM. Further, the IC50 in experiment [3] lay within 1000 to 10000 nM.

For the molecule `CCCSC[C@@H]1CCc2cc([C@H]3CC[C@](N)(COP(=O)(O)O)C3)ccc2C1` [compound 503], the values for the EC50 in experiment [1], in experiment [2] and in experiment [4] were over 625 nM, under 10 nM and under 10 nM, respectively. In addition, the IC50 in experiment [3] was under 10 nM.

Regarding `CCCCCO[C@@H]1CCc2cc([C@@H]3CC[C@](N)(COP(=O)(O)O)C3)ccc2C1` [compound 433], the figures for the EC50 in experiment [1], in experiment [2] and in experiment [4] were over 625 nM, under 10 nM and 100 to 1000 nM, respectively. For the same molecule, the IC50 in experiment [3] is 10 to 100 nM.

For the molecule `CCCCCC[C@H]1COc2cc([C@H]3CC[C@](N)(COP(=O)(O)O)C3)ccc2C1` [compound 424], the EC50 is over 625 nM in experiment [1], under 10 nM in experiment [2] and 10 to 100 nM in experiment [4]. For the same molecule, the IC50 in experiment [3] was 10 to 100 nM.

For the molecule `Cc1ccc(COC[C@@H]2CCc3cc([C@H]4CC[C@](N)(COP(=O)(O)O)C4)ccc3C2)cc1` [compound 474], the EC50 in experiment [1] was over 625 nM; in experiment [2] it was under 10 nM; in experiment [4], 10 to 100 nM. The IC50 in experiment [3] was under 10 nM.

Consider `CC(C)CSCC[C@@H]1CCc2cc([C@H]3CC[C@](N)(COP(=O)(O)O)C3)ccc2C1` [compound 538], for which the EC50 in experiment [1] was over 625 nM; in experiment [2], under 10 nM; in experiment [4], under 10 nM. Moreover, the IC50 in experiment [3] is under 10 nM.

Consider `CC(C)c1ccccc1SC[C@@H]1CCc2cc([C@H]3CC[C@](N)(COP(=O)(O)O)C3)ccc2C1` [compound 530], for which the EC50 in experiment [1] was over 625 nM; in experiment [2] it was 10 to 100 nM; in experiment [4], under 10 nM. The IC50 in experiment [3] fell in the range of 10 to 100 nM.

On to `N[C@@]1(COP(=O)(O)O)CC[C@@H](c2ccc3c(c2)CC[C@H](CCc2cccnc2)C3)C1` (single isomer, unassigned) [compound 606], for which the EC50 in experiment [1] is over 625 nM; in experiment [2] it was under 10 nM; in experiment [4], 10 to 100 nM. For the same molecule, in experiment [3], the IC50 was in the range of 10 to 100 nM.

For the molecule `CCCCOC[C@@H]1COc2cc([C@H]3CC[C@](N)(COP(=O)(O)O)C3)ccc2O1` [compound 414], the EC50 in experiment [1] is over 625 nM; in experiment [2], 1000 to 10000 nM; in experiment [4], 10 to 100 nM. For the same molecule, in experiment [3], the IC50 was under 10 nM.

Consider `Cn1nc(OC[C@@H]2CCc3cc([C@H]4CC[C@](N)(COP(=O)(O)O)C4)ccc3C2)cc1C(F)(F)F` [compound 496], for which the EC50 in experiment [1] was over 625 nM; in experiment [2] it was under 10 nM; in experiment [4], under 10 nM. In addition, the IC50 in experiment [3] was under 10 nM.

In the case of `CCOc1ccc(C[C@H]2CCc3cc([C@H]4CC[C@](N)(COP(=O)(O)O)C4)ccc3C2)cc1` [compound 547], the EC50 is over 625 nM in experiment [1], 10 to 100 nM in experiment [2] and 10 to 100 nM in experiment [4]. Besides, in experiment [3], the IC50 is under 10 nM.

Regarding `CCCC=CCOC[C@@H]1CCc2cc([C@H]3CC[C@](N)(COP(=O)(O)O)C3)ccc2C1` [compound 462], the EC50 in experiment [1] is over 50 nM; in experiment [2], under 10 nM; in experiment [4] it was under 10 nM. For the same molecule, in experiment [3], the IC50 is under 10 nM.
